The results in this text go back to patent US11518761B2, “CDPK1 inhibitors, compositions, and methods related thereto” (Vyera Pharmaceuticals, LLC, priority 2017, dated 2022).

In general, IC50 refers to the concentration at which inhibition is half-maximal.

The target of this assay is T. gondii CDPK1 (tgCDPK1) (Toxoplasma gondii, UniProt Q9BJF5). The assay can be described thus: biochemical. Conditions: at least three independent replicates. How it is done: Certain of the compounds prepared as described above were assayed to determine their IC50 for inhibition of T. gondii CDPK1 (tgCDPK1). At least three independent replicates of the assay were conducted for each compound tested.
Sequence of T. gondii CDPK1 (tgCDPK1) (Q9BJF5 1-507): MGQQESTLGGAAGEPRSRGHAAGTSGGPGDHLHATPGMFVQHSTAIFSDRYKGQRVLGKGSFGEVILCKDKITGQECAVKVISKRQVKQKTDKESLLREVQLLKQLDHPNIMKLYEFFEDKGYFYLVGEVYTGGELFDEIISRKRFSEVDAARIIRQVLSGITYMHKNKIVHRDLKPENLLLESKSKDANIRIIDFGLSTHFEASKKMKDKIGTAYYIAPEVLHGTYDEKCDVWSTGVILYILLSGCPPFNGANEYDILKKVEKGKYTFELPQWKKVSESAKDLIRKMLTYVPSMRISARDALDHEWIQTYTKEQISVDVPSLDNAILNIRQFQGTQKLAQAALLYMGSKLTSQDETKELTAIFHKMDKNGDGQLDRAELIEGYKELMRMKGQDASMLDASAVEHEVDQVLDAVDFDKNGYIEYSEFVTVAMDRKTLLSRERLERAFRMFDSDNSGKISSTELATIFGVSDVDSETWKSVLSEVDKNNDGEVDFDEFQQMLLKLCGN

Turning to `Nc1ncnc2c1c(Oc1cc(C(F)(F)F)ccn1)nn2C1CC1` [Compound 77, 1-cyclopropyl-3-((4-(trifluoromethyl)pyridin-2-yl)oxy)-1H-pyrazolo[3,4-d]pyrimidin-4-amine], inhibition was half-maximal at 16.5 nM (IC50).
In the case of `Nc1ncnc2c1c(Cc1cccc(Cl)c1)nn2[C@H]1C[C@@H](O)C1` [Compound 130, (cis)-3-(4-amino-3-(3-chlorobenzyl)-1H-pyrazolo[3,4-d]pyrimidin-1-yl)cyclobutan-1-ol] it was 15.4 nM; in that of `Nc1ncnc2c1c(Cc1cccc(F)c1)nn2[C@H]1C[C@@H](O)C1` [Compound 132], 28.4 nM; in that of `Nc1ncnc2c1c(Oc1cccc(Cl)c1)nn2[C@H]1C[C@@H](O)C1` [Compound 152], 27.3 nM.
In the case of `Nc1ncnc2c1c(Oc1cccc(F)c1)nn2[C@H]1C[C@@H](O)C1` [Compound 153, (cis)-3-(4-ammo-3-(3-fluorophenoxy)-1H-pyrazolo[3,4-d]pyrimidin-1-yl)cyclobutan-1-ol] it was 33.8 nM; in that of `Nc1ncnc2c1c(Cc1c[nH]c3ccc(F)cc13)nn2[C@H]1C[C@H](O)C1` [Compound 154, (trans)-3-(4-amino-3-((5-fluoro-1H-indol-3-yl)methyl)-1H-pyrazolo[3,4-d]pyrimidin-1-yl)cyclobutan-1-ol], 11.8 nM.
The same measure for `Nc1ncnc2c1c(Oc1cccc(F)c1)nn2[C@H]1C[C@H](O)C1` [Compound 155, (trans)-3-(4-amino-3-(3-fluorophenoxy)-1H-pyrazolo[3,4-d]pyrimidin-1-yl)cyclobulan-1-ol]: 38 nM.
On to `Nc1ncnc2c1c(Oc1cc(Cl)ccn1)nn2[C@H]1C[C@H](F)C1` [Compound 158, 3-[(4-chloropyridin-2-yl)oxy]-1-[(trans)-3-fluorocyclobutyl]-l H-pyrazolo[3,4-d]pyrimidin-4-amine], for which it took 11.4 nM to reach half-maximal inhibition (IC50).
The same measure for `Nc1ncnc2c1c(Oc1cccc(C(F)(F)F)c1)nn2[C@H]1C[C@H](F)C1` [Compound 166]: 28.9 nM.
With “(2-((4-amino-1-cyclopropyl-1H-pyrazolo[3,4-d]pyrimidin-3-yl)oxy)pyrimidin-4-yl)methanol [Compound 86]”, 29.6 nM corresponded to half-maximal inhibition (IC50).
